Measured values reported in US20240300980A1, “HETEROCYCLIC COMPOUNDS AS KRAS INHIBITOR, AND PREPARATION THEREFOR AND USE THEREOF IN TREATMENT” (SHANGHAI KECHOW PHARMA, INC., priority 2021, published 2024).
Where two headings read alike, the source gives them in different places.

Test system: AGS cells (KRAS^G12D)
Test: Detection of cell proliferation in vitro by MTT/MTS method (cell activity experiment)
Format: cell-based
Conditions: AGS cells, MTT/MTS, 3 days of drug treatment, read-out: AGS IC50
Protocol: The above cells were cultured in a complete medium containing 10% fetal bovine serum, 100 IU/mL penicillin and 100 jag/mL streptomycin, in the aseptic incubator with 95% relative humidity and 5% CO2 concentration.
2. Reagents: F12K, D-PBS, FBS, Penicillin Streptomycin, Tryple, MTT (5 mg/mL)
Appropriate amount of compound powder was weighed in a 1.5 mL centrifuge tube, then the corresponding volume of dimethyl sulfoxide (DMSO) was added to form a 20 mM reserve solution. The solution was packed separately and stored in a refrigerator at −20° C. away from light.
The cells were inoculated in a cell culture bottle, added an appropriate amount of complete medium, and cultured in a sterile incubator. When the degree of cell confluence reached more than 80%, subculture was carried out.
The adherent cells in logarithmic growth phase were digested by trypsin or the suspension cells were collected by centrifugation and counted. 90 μL cell suspension was inoculated into 96-well plate according to the cell inoculation density of 1000 cells per well, and 10 μL of 10-fold final concentration compound diluted by culture medium was added 24 hours later. Compared with the hole with the same volume of 5% DMSO as control, the final concentration of DMSO was 0.5%. After 3 days of drug treatment, the cell viability was detected by MTT. The specific methods are as follows: 10 μL MTT per well was added into the incubator for 4 hours, the supernatant was discarded and 150 μL DMSO was added to dissolve the crystal methylazan, and the absorbance of 490 nm was detected by enzyme labeling instrument, or 10 μL MITS per well was added to the incubator for 4 hours, and […] absorbance was detected directly by enzyme labeling instrument. GraphPad Prism 6 software makes dose-effect curve and calculates IC50.

Row | IC50 [nM] | SMILES | IC50 (Homo sapiens, AGS, 72 h) [nM]
1 |  | C#Cc1c(F)ccc2cc(O)cc(-c3ccc4c(N5C[C@H]6CC[C@@H](C5)N6)nc(OC[C@@]56CCCN5C[C@H](F)C6)nc4c3F)c12 [Example 91, 4-(4-((1R,5S)-3,8-diazabicyclo[3.2.1]octan-3-yl)-8-fluoro-2-(((2R,7aS)-2-fluorotetrahydro-1H-pyrrolizin-7a(5H)-yl)methoxy)quinazolin-7-yl)-5-ethynyl-6-fluoronaphthalen-2-ol] | 1.3
2 |  | CC1CCCc2cc(O)cc(-c3cc4nc(OC[C@@]56CCCN5C[C@H](F)C6)nc(N5C[C@H]6CC[C@@H](C5)N6)c4c4occc34)c21 (stereo partly drawn) [Example 387, 4-(9-((1R,5S)-3,8-diazabicyclo[3.2.1]octan-3-yl)-7-(((2R,7aS)-2-fluorotetrahydro-1H-pyrrolizin-7a(5H)-yl)methoxy)furo[2,3-f]quinazolin-4-yl)-5-methyl-5,6,7,8-tetrahydronaphthalen-2-ol] | 481
3 |  | C#Cc1c(F)ccc2cc(O)cc(-c3ccc4c(N5C[C@H]6CC[C@@H](C5)N6)nc(OC[C@@]56CCCN5C[C@H](F)C6)nc4c3O)c12 [Example 328, 4-((1R,5S)-3,8-diazabicyclo[3.2.1]octan-3-yl)-7-(8-ethynyl-7-fluoro-3-hydroxynaphthalen-1-yl)-2-(((2R,7aS)-2-fluorotetrahydro-1H-pyrrolizin-7a(5H)-yl)methoxy)quinazolin-8-ol] | 8910
4 |  | CCc1c(F)ccc2cc(O)cc(-c3ccc4c(N5C[C@H]6CC[C@@H](C5)S6)nc(OC[C@@]56CCCN5C[C@H](F)C6)nc4c3F)c12 [Example 161, 4-(4-((1R,5S)-8-thia-3-azabicyclo[3.2.1]octan-3-yl)-8-fluoro-2-(((2R,7aS)-2-fluorotetrahydro-1H-pyrrolizin-7a(5H)-yl)methoxy)quinazolin-7-yl)-5-ethyl-6-fluoronaphthalen-2-ol] | 236
5 |  | C#Cc1c(F)ccc2cc(O)cc(-c3ccc4c(N5C[C@H]6CC[C@@H](C5)C6(F)F)nc(OC[C@@]56CCCN5C[C@H](F)C6)nc4c3F)c12 [Example 119, 4-(4-((1R,5S)-8,8-difluoro-3-azabicyclo [3.2.1]octan-3-yl)-8-fluoro-2-(((2R,7aS)-2-fluorotetrahydro-1H-pyrrolizin-7a(5H)-yl)methoxy)quinazolin-7-yl)-5-ethynyl-6-fluoronaphthalen-2-ol] | > 2500
6 |  | C#Cc1c(F)ccc2cc(O)cc(-c3cnc4c(N5C[C@H]6CC[C@@H](C5)N6)nc(OC[C@@]56CCCN5C[C@H](F)C6)nc4c3)c12 [Example 200, 4-(4-((1R,5S)-3,8-diazabicyclo[3.2.1]octan-3-yl)-2-(((2R,7aS)-2-fluorotetrahydro-1H-pyrrolizin-7a(5H)-yl)methoxy)pyrido[3,2-d]pyrimidin-7-yl)-5-ethynyl-6-fluoronaphthalen-2-ol] | > 2500
7 |  | O=C1CCCc2cc(O)cc(-c3ccc4c(N5C[C@H]6CC[C@@H](C5)N6)nc(OC[C@@]56CCCN5C[C@H](F)C6)nc4c3F)c21 [Example 296, 8-(4-((1R,5S)-3,8-diazabicyclo[3.2.1]octan-3-yl)-8-fluoro-2-(((2R,7aS)-2-fluorotetrahydro-1H-pyrrolizin-7a(5H)-yl)methoxy)quinazolin-7-yl)-6-hydroxy-3,4-dihydronaphthalen-1(2H)-one] | > 2500
8 |  | CSc1nccc2cc(O)cc(-c3ncc4c(N5C[C@H]6CC[C@@H](C5)N6)nc(OC[C@@]56CCCN5C[C@H](F)C6)nc4c3F)c12 [Example 341, 8-(4-((1R,5S)-3,8-diazabicyclo[3.2.1]octan-3-yl)-8-fluoro-2-(((2R,7aS)-2-fluorotetrahydro-1H-pyrrolizin-7a(5H)-yl)methoxy)pyrido[4,3-d]pyrimidin-7-yl)-1-(methylthio)isoquinolin-6-ol] | 25
9 |  | C#Cc1c(F)ccc2cc(O)cc(-c3ncc4c(N5CCC6(CCCS6)CC5)nc(OC[C@@]56CCCN5C[C@H](F)C6)nc4c3F)c12 [Example 49, 5-ethynyl-6-fluoro-4-(8-fluoro-2-(((2R, 7aS)-2-fluorotetrahydro-1H-pyrrolizin-7a(5H)-yl)methoxy)-4-(1-thia-8-azaspiro[4.5]decan-8-yl)pyrido[4,3-d]pyrimidin-7-yl)naphthalen-2-ol] | > 10000
10 |  | C#Cc1c(F)ccc2cc(O)cc(-c3ncc4c(N5CC6CCC5CN6)nc(OC[C@@]56CCCN5C[C@H](F)C6)nc4c3F)c12 (stereo partly drawn) [Example 46, 4-(4-(2,5-diazabicyclo [2.2.2]octan-2-yl)-8-fluoro-2-(((2R,7aS)-2-fluorotetrahydro-1H-pyrrolizin-7a(5H)-yl)methoxy)pyrido[4,3-d]pyrimidin-7-yl)-5-ethynyl-6-fluoronaphthalen-2-ol] | 13
11 |  | Oc1cc(-c2c3c(c4c(N5C[C@H]6CC[C@@H](C5)N6)nc(OC[C@@]56CCCN5C[C@H](F)C6)nc4c2F)CCC3)c2c(F)c(F)ccc2c1 [Example 380, 4-(1-((1R,5S)-3,8-diazabicyclo[3.2.1]octan-3-yl)-5-fluoro-3-(((2R,7aS)-2-fluorotetrahydro-1H-pyrrolizin-7a(5H)-yl)methoxy)-8,9-dihydro-7H-cyclopenta[f]quinazolin-6-yl)-5,6-difluoronaphthalen-2-ol] | 95
12 | > 2500 | C#Cc1c(F)ccc2cc(O)cc(-c3ccc4c(N5C[C@H]6CC[C@@H](C5)C6[S+](C)[O-])nc(OC[C@@]56CCCN5C[C@H](F)C6)nc4c3F)c12 (stereo partly drawn) [Example 130, 5-ethynyl-6-fluoro-4-(8-fluoro-2-(((2R,7aS)-2-fluorotetrahydro-1H-pyrrolizin-7a(5H)-yl)methoxy)-4-((1R,5S, 8R)-8-(methylsulfinyl)-3-azabicyclo[3.2.1]octan-3-yl)quinazolin-7-yl)naphthalen-2-ol] | 
13 |  | C#Cc1cccc2cc(O)cc(-c3ncc4c(N5C[C@H]6CC[C@@H](C5)O6)nc(OC[C@@]56CCCN5C[C@H](F)C6)nc4c3F)c12 [Example 11, 4-(4-((1R,5S)-8-oxa-3-azabicyclo[3.2.1]octan-3-yl)-8-fluoro-2-(((2R,7aS)-2-fluorotetrahydro-1H-pyrrolizin-7a(5H)-yl)methoxy)pyrido[4,3-d]pyrimidin-7-yl)-5-ethynylnaphthalen-2-ol] | 390
14 |  | CCc1c(F)ccc2cc(O)cc(-c3ncc4c(N5C[C@H]6CC[C@@H](C5)C6(F)F)nc(OC[C@@]56CCCN5C[C@H](F)C6)nc4c3F)c12 [Example 31, 4-(4-((1R,5S)-8,8-difluoro-3-azabicyclo [3.2.1]octan-3-yl)-8-fluoro-2-(((2R,7aS)-2-fluorotetrahydro-1H-pyrrolizin-7a(5H)-yl)methoxy)pyrido[4,3-d]pyrimidin-7-yl)-5-ethyl-6-fluoronaphthalen-2-ol] | > 2500
15 |  | Oc1ccc2ccccc2c1C#Cc1ccc2c(N3C[C@H]4CC[C@@H](C3)N4)nc(OC[C@@]34CCCN3C[C@H](F)C4)nc2c1F [Example 365, 1-((4-((1R,5S)-3,8-diazabicyclo[3.2.1]octan-3-yl)-8-fluoro-2-(((2R,7aS)-2-fluorotetrahydro-1H-pyrrolizin-7a(5H)-yl)methoxy)quinazolin-7-yl)ethynyl)naphthalen-2-ol] | 3640
16 |  | C#Cc1nccc2cc(O)cc(-c3ncc4c(NCC5(N(C)C)CCC5)nc(OC[C@@]56CCCN5C[C@H](F)C6)nc4c3F)c12 [Example 424, 8-(4-(((1-(dimethylamino)cyclobutyl)methyl)amino)-8-fluoro-2-(((2R,7aS)-2-fluorotetrahydro-1H-pyrrolizin-7a(5H)-yl)methoxy)pyrido[4,3-d]pyrimidin-7-yl)-1-ethynylisoquinolin-6-ol] | 30
17 |  | [O-][S+]1C2CCC1CN(c1nc(OC[C@@]34CCCN3C[C@H](F)C4)nc3c(F)c(-c4cc(O)cc5ccc(F)c(F)c45)ccc13)C2 (stereo partly drawn) [Example 165, (1R,5S,8R)-3-(7-(7,8-difluoro-3-hydroxynaphthalen-1-yl)-8-fluoro-2-(((2R,7aS)-2-fluorotetrahydro-1H-pyrrolizin-7a(5H)-yl)methoxy)quinazolin-4-yl)-8-thia-3-azabicyclo[3.2.1]octane 8-oxide] | > 2500
18 |  | C#Cc1c(F)ccc2cc(O)cc(-c3ncc4c(N5C[C@H]6CC[C@@H](C5)S6)nc(OC[C@@]56CCCN5C[C@H](F)C6)nc4c3F)c12 [Example 21, 4-(4-((1R,5S)-8-thia-3-azabicyclo[3.2.1]octan-3-yl)-8-fluoro-2-(((2R,7aS)-2-fluorotetrahydro-1H-pyrrolizin-7a(5H)-yl)methoxy)pyrido[4,3-d]pyrimidin-7-yl)-5-ethynyl-6-fluoronaphthalen-2-ol] | 269
19 |  | C#Cc1c(F)ccc2cc(O)cc(-c3ccc4c(N5C[C@H]6CC[C@@H](C5)N6)nc(OC[C@]56CCCN5[C@@H](COC(=O)N(C)C)CC6)nc4c3F)c12 [Example 96, ((3R,7aR)-7a-(((4-((1R,5S)-3,8-diazabicyclo[3.2.1]octan-3-yl)-7-(8-ethynyl-7-fluoro-3-hydroxynaphthalen-1-yl)-8-fluoroquinazolin-2-yl)oxy)methyl)hexahydro-1H-pyrrolizin-3-yl)methyl dimethylcarbamate] | 7.9
